Experiment: Activity of the resolved enantiomers of 1-5 (test not stated)
Details: enantiomers resolved on Chiralpak AD; first and second peak to elute

Q: For CC(=O)N1N=C(c2cc(F)ccc2F)C[C@@]1(CCCO)c1ccccc1 (single isomer, unassigned; isomer 3) [(S) isomer], which “activity of the enantiomer (active / inactive)” value is on record?
A: active

Q: For CC(=O)N1N=C(c2cc(F)ccc2F)C[C@]1(CCCO)c1ccccc1 [(R) isomer], which “activity of the enantiomer (active / inactive)” value is on record?
A: inactive

— patent US7618971B2, “Mitotic kinesin inhibitors” (Merck & Co. Inc., priority 2004, dated 2009)
